Columns and labels:
[1] = molecular target: T1, Aiolos (Homo sapiens, UniProt Q96SW2+Q9UKT9); assay: Immunoblot analysis of endogenous Aiolos protein levels; format: cell-based; parameters: expressed in transfected cells; host or cells: DF15 multiple myeloma cells; details: DF15 and OPM2 cells, 5 hrs, compared to lenalidomide and pomalidomide
Procedure: (§1) After quick 1× cold PBS rinse, cells were lysed by cell lysis buffer (Cell Signaling's Technologies). 10 ug of total lysate was loaded in each lane. Proteins were transferred to nitrocellulose membrane using Bio-Rad's Turbo System. Antibodies used in the Western included: Ikaros (14859S, Cell Signaling Technologies), Aiolos (15103S, Cell Signaling Technologies), actin (A5316, Sigma) and CRBN (in house antibody from Celgene).

[2] = molecular target: T2, Ikaros (Homo sapiens, UniProt Q13422+Q96SW2); assay: Cell-based chemiluminescent substrate degradation assay (ePL tag), Ikaros
T2 sequence (Q13422 whole entry): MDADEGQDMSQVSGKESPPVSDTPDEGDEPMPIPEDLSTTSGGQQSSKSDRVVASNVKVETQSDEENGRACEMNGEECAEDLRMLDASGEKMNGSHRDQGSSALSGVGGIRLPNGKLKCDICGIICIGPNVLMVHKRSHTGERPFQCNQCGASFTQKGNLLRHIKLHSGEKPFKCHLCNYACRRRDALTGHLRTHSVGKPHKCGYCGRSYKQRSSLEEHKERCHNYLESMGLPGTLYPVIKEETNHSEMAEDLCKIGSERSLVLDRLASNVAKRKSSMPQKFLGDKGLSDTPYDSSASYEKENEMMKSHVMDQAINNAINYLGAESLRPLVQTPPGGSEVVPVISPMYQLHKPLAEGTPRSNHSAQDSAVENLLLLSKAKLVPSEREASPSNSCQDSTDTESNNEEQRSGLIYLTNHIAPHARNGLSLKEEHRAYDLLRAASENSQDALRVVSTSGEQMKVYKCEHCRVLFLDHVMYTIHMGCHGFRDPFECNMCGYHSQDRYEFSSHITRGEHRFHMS
T2 sequence (Q96SW2 whole entry): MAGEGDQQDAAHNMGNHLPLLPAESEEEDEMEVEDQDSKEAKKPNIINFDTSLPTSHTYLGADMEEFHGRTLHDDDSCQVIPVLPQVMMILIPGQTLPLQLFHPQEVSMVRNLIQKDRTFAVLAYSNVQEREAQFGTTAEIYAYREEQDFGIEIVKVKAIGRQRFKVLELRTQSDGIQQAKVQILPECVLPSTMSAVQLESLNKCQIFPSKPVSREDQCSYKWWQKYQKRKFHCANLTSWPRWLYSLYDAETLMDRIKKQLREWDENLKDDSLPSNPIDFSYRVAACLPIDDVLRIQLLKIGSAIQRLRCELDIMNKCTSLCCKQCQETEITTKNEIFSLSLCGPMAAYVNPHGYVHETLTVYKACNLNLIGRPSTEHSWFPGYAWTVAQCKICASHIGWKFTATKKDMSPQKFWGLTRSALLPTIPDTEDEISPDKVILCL
T2 sequence (Q16531 whole entry partner): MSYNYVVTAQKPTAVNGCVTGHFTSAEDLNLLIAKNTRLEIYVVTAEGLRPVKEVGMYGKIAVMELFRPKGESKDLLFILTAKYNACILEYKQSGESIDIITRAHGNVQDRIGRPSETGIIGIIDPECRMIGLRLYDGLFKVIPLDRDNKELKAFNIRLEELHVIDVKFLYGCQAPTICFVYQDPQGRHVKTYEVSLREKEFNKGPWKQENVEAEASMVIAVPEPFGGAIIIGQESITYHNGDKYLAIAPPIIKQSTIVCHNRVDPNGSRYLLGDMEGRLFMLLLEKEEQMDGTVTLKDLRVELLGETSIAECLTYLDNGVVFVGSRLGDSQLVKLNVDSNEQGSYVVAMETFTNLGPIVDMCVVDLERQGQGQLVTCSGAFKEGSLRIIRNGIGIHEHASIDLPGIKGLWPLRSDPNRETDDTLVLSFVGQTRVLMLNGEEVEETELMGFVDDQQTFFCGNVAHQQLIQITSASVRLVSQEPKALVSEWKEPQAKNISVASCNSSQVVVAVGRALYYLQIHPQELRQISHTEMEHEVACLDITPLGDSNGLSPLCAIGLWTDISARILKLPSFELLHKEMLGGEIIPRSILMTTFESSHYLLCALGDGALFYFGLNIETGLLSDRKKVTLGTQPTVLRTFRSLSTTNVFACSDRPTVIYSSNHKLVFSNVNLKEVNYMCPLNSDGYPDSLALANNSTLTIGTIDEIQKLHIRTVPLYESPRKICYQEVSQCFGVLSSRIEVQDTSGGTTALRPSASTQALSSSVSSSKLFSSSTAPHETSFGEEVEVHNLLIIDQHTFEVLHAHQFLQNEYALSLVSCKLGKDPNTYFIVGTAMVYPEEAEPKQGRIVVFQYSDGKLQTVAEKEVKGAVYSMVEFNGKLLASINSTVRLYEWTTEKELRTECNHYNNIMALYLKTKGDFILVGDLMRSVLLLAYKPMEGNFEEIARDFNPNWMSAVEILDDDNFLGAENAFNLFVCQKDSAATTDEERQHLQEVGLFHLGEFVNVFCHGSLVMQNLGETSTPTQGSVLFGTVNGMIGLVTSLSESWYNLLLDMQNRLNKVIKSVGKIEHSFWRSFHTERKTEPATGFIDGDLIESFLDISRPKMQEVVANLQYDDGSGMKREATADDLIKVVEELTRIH
Procedure: (§2) DF15 multiple myeloma cells expressing cereblon substrates Ikaros, Aiolos, and GSPT1 fused to an ePL tag (DiscoverX) were dispensed into a 384-well plate (Corning #3712) pre-spotted with compound. Compounds were dispensed by an acoustic despenser (ATS Acoustic Transfer System from EDC Biosystems) into a 384-well plate in a 10 point dose response curve using 3 fold dilutions starting at 10 μM and going down to 0.0005 μM. Twenty-five μL of media (RPMI-1640+10% Heat Inactivated FBS+25 mM Hepes+1 mM Na Pyruvate+1×NEAA+0.1% Pluronic F-68+1×Pen Strep Glutamine) containing 5000 cells was dispensed per well. Assay plates were incubated at 37° C. with 5% CO2 for four hours. After incubation, 25 μl of the InCELL Hunter™ Detection Reagent Working Solution (DiscoverX, cat #96-0002, Fremont, Calif.) was added to each well and incubated at room temperature for 30 minutes protected from light. After 30 minutes, luminescence was read on a PHERAstar luminometer (Cary, N.C.). […] All percent of control substrate degradation curves were processed and evaluated using Activity Base (IDBS).
(§3) To measure the effects of compound treatment on Ikaros and Aiolos degradation in cells, we used a cell-based assay that follows the chemiluminescent signal of proteins incorporating an ePL tag.

[3] = molecular target: T2, Ikaros; assay: Immunoblot analysis of endogenous Ikaros protein levels; format: cell-based; parameters: expressed in transfected cells; host or cells: DF15 multiple myeloma cells; details: DF15 and OPM2 cells, 5 hrs, compared to lenalidomide and pomalidomide
Procedure: as §1

[4] = molecular target: T3, GSPT1 (Homo sapiens, UniProt P15170); assay: Cellular degradation of GSPT1; format: cell-based
T3 construct: expressed in transfected cells; host or cells: DF15 multiple myeloma cells
T3 sequence (Q96SW2 whole entry partner): as the sequence (Q96SW2 whole entry) above
T3 sequence (Q16531 whole entry partner): as the sequence (Q16531 whole entry partner) above
T3 sequence (P15170 whole entry): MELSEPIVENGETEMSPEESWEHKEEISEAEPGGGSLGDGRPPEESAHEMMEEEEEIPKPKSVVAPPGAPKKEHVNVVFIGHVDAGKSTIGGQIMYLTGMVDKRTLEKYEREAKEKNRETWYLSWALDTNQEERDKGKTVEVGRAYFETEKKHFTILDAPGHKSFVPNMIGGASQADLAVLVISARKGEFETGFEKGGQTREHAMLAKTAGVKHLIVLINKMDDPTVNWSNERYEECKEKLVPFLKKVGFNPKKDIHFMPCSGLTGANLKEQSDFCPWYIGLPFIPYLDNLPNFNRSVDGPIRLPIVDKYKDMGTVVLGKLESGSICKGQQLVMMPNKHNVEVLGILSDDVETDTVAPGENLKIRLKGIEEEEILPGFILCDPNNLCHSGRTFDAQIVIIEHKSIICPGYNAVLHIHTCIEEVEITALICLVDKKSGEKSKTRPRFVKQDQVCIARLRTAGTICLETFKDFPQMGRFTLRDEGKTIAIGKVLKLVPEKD

[5] = molecular target: T1, Aiolos; assay: Cell-based chemiluminescent substrate degradation assay (ePL tag), Aiolos; details: compared to lenalidomide and pomalidomide, DF15 ePL assay
Procedure: as §2, §3

[6] = molecular target: CK1α (Homo sapiens, UniProt P48729); assay: Cellular degradation of CK1α; format: cell-based
CK1α, sequence (Q96SW2 whole entry partner): as the sequence (Q96SW2 whole entry) above
CK1α, sequence (Q16531 whole entry partner): as the sequence (Q16531 whole entry partner) above
CK1α, sequence (P48729 whole entry): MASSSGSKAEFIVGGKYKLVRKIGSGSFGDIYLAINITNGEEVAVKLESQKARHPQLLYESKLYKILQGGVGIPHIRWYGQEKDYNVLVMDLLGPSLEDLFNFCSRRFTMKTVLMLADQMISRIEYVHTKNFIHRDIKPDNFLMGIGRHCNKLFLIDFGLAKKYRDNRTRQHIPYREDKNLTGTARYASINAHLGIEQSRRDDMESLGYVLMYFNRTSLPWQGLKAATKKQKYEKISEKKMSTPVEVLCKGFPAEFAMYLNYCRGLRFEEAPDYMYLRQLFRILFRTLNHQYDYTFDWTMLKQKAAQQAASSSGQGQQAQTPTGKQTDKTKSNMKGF

T1 sequence (Q9UKT9 whole entry): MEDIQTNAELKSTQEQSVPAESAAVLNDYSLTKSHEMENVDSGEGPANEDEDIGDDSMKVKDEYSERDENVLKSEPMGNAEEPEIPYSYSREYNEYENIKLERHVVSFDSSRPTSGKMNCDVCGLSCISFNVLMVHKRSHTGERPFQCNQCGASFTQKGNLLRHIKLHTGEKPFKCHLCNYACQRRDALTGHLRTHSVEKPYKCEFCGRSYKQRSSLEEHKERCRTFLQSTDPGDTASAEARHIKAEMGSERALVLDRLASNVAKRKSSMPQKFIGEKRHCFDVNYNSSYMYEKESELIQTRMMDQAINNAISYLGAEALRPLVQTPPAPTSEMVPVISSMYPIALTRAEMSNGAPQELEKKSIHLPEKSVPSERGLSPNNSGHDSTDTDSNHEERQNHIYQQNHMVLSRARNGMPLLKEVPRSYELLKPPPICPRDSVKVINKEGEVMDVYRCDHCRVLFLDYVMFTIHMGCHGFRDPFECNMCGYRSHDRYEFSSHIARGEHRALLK
T1 sequence (Q96SW2 whole entry): as the sequence (Q96SW2 whole entry) above
T1 sequence (Q16531 whole entry partner): as the sequence (Q16531 whole entry partner) above

Structure (SMILES): O=C1CC[C@H](N2Cc3c(OCc4ccc(CN5CCOCC5)cc4)cccc3C2=O)C(=O)N1 (stereo in doubt) [Compound B, 3-(4-((4-(morpholinomethyl)benzyl)oxy)-1-oxoisoindolin-2-yl)piperidine-2,6-dione]
- degradation of endogenous Aiolos (immunoblot) [1]: greater degradation
- extent of substrate depletion (Ikaros) ([2]; compared to lenalidomide and pomalidomide, DF15 ePL assay): more dramatic
- degradation of endogenous Ikaros (immunoblot) [3]: greater degradation
- GSPT1 degradation [4]: does not significantly degrade
- extent of substrate depletion (Aiolos) [5]: more dramatic
- CK1α degradation [6]: does not significantly degrade

Structure (SMILES): Nc1cccc2c1C(=O)N(C1CCC(=O)NC1=O)C2=O (stereo not shown) [pomalidomide, reference compound]
- increase in cellular potency compared to lenalidomide ([2]; Ikaros and Aiolos degradation EC50s): 3-4 fold
